Results from PubChem BioAssay AID256 (DTP/NCI, 2004).
Toxic doses and inconclusive results are not listed. The calls were made as follows: active = survival T/C of 150% or more; inactive = T/C below 125% in these data.

Test system: CD2F1 mice, L1210 leukemia ip, survival T/C
Test: NCI In Vivo Anticancer Drug Screen. Data for tumor model L1210 Leukemia (intraperitoneal) in CD2F1 (CDF1) mice
Conditions: higher = longer survival
Summary of the method: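 Tumor-bearing mice (transplanted tumor) were split into treated and vehicle control groups, and the measured endpoint of each treated group was divided by that of its vehicle controls.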

[1] = endpoint: mean survival time, dose: 100.0 mg/kg/injection, schedule: Q04DX003 (ip), vehicle: saline with Tween-80
[2] = endpoint: mean survival time, dose: 200.0 mg/kg/injection, schedule: Q04DX003 (ip), vehicle: saline with Tween-80
[3] = endpoint: mean survival time, dose: 400.0 mg/kg/injection, schedule: Q04DX003 (ip), vehicle: saline with Tween-80
[4] = endpoint: mean survival time, dose: 50.0 mg/kg/injection, schedule: Q01DX009 (ip), vehicle: saline with Tween-80
[5] = endpoint: mean survival time, dose: 100.0 mg/kg/injection, schedule: Q01DX009 (ip), vehicle: saline with Tween-80
[6] = endpoint: mean survival time, dose: 200.0 mg/kg/injection, schedule: Q01DX009 (ip), vehicle: saline with Tween-80
[7] = endpoint: mean survival time, dose: 400.0 mg/kg/injection, schedule: Q01DX009 (ip), vehicle: saline with Tween-80
[8] = endpoint: mean survival time, dose: 100.0 mg/kg/injection, schedule: Q04DX003 (ip), vehicle: saline
[9] = endpoint: mean survival time, dose: 200.0 mg/kg/injection, schedule: Q04DX003 (ip), vehicle: saline
[10] = endpoint: mean survival time, dose: 400.0 mg/kg/injection, schedule: Q04DX003 (ip), vehicle: saline
[11] = endpoint: mean survival time, dose: 25.0 mg/kg/injection, schedule: Q01DX009 (ip), vehicle: saline with Tween-80

Measured: T/C

CC1CC=CCC1/C=N\Nc1ccc([N+](=O)[O-])cc1[N+](=O)[O-] (centres undefined)
inactive: [1] 98 % of control | [2] 94 % of control | [3] 100 % of control

Clc1ccc(-n2cccc2)cc1
inactive: [1] 98 % of control | [2] 91 % of control | [3] 98 % of control

O=C1C=C(c2ccccc2)C(O)(c2ccccc2)C1 (centres undefined)
inactive: [4] 89 % of control | [5] 104 % of control | [6] 89 % of control

Cc1ccc(Cl)cc1NS(=O)(=O)c1ccccc1
inactive: [5] 94 % of control | [1] 100 % of control | [6] 96 % of control | [2] 105 % of control | [7] 94 % of control | [3] 105 % of control

C[SeH]C.C[SeH]C.O.O=S(=O)(O)O.[Pt]
inactive: endpoint: mean survival time, dose: 12.5 mg/kg/injection, schedule: Q04DX003 (ip), vehicle: other 89 % of control | endpoint: mean survival time, dose: 25.0 mg/kg/injection, schedule: Q04DX003 (ip), vehicle: other 101 % of control | endpoint: mean survival time, dose: 50.0 mg/kg/injection, schedule: Q04DX003 (ip), vehicle: other 103 % of control | endpoint: mean survival time, dose: 100.0 mg/kg/injection, schedule: Q04DX003 (ip), vehicle: other 107 % of control

CS(=O)(=O)Nc1ccc(C(=O)CCN2CCCCCC2)cc1
inactive: endpoint: median survival time, dose: 25.0 mg/kg/injection, schedule: Q01DX009 (ip), vehicle: saline 98 % of control | endpoint: median survival time, dose: 50.0 mg/kg/injection, schedule: Q01DX009 (ip), vehicle: saline 101 % of control | endpoint: median survival time, dose: 100.0 mg/kg/injection, schedule: Q01DX009 (ip), vehicle: saline 98 % of control

O=Cc1ccc[nH]1
inactive: endpoint: mean survival time, dose: 100.0 mg/kg/injection, schedule: Q01DX001 (ip), vehicle: saline 94 % of control | [8] 104 % of control | endpoint: mean survival time, dose: 200.0 mg/kg/injection, schedule: Q01DX001 (ip), vehicle: saline 100 % of control | [9] 101 % of control | endpoint: mean survival time, dose: 400.0 mg/kg/injection, schedule: Q01DX001 (ip), vehicle: saline 100 % of control | [10] 108 % of control

O=C(O)CNC(=O)CCNC(=O)OCc1ccccc1
inactive: [5] 95 % of control | [6] 93 % of control | [7] 93 % of control

N#CO
inactive: endpoint: mean survival time, dose: 50.0 mg/kg/injection, schedule: Q01DX009 (ip), vehicle: saline sonified 100 % of control | endpoint: mean survival time, dose: 100.0 mg/kg/injection, schedule: Q01DX009 (ip), vehicle: saline sonified 118 % of control | [8] 98 % of control | [9] 112 % of control

Cc1cccc[n+]1[O-]
inactive: [8] 101 % of control | [9] 98 % of control | [10] 88 % of control

COC1=C(OC)C(=O)C(SCCCc2ccccc2)=CC1=O
inactive: endpoint: mean survival time, dose: 6.25 mg/kg/injection, schedule: Q01DX009 (ip), vehicle: saline with Tween-80 98 % of control | endpoint: mean survival time, dose: 12.5 mg/kg/injection, schedule: Q01DX009 (ip), vehicle: saline with Tween-80 102 % of control | [11] 93 % of control

CCCCC(C(=O)OCC)C(=O)c1ccccc1 (centres undefined) (tested in a mixture with another compound)
inactive: [1] 100 % of control

O=C1CSC(=S)N1/N=C/c1cc2c(cc1[N+](=O)[O-])OCO2
inactive: endpoint: mean survival time, dose: 75.0 mg/kg/injection, schedule: Q01DX001 (ip), vehicle: other 102 % of control | endpoint: mean survival time, dose: 300.0 mg/kg/injection, schedule: Q01DX001 (ip), vehicle: other 90 % of control

Cc1cccc(C)c1NC(=O)c1ccccc1Cl
inactive: [1] 98 % of control | [2] 97 % of control | [3] 89 % of control

COc1ccc(NC(=O)Oc2ccc(C3CCCCC3)cc2)cc1
inactive: [11] 97 % of control | endpoint: mean survival time, dose: 25.0 mg/kg/injection, schedule: Q04DX002 (ip), vehicle: saline with Tween-80 104 % of control | [4] 93 % of control | endpoint: mean survival time, dose: 50.0 mg/kg/injection, schedule: Q04DX002 (ip), vehicle: saline with Tween-80 104 % of control | [5] 89 % of control | endpoint: mean survival time, dose: 100.0 mg/kg/injection, schedule: Q04DX002 (ip), vehicle: saline with Tween-80 101 % of control | endpoint: mean survival time, dose: 200.0 mg/kg/injection, schedule: Q04DX002 (ip), vehicle: saline with Tween-80 108 % of control
